These results are taken from US12692254B2, “Benzimidazole inhibitors of PAD enzymes” (BRISTOL-MYERS SQUIBB COMPANY, priority 2018, dated 2026).

For the test, the target named is human PAD4 (hPAD4) (Homo sapiens, UniProt Q9UM07). As to the kind of experiment: RFMS human PAD4 functional assay (rapid-fire mass spectrum). The following applies: 5 nM hPAD4 enzyme, 250 μM BAEE, 50 μM Calcium; 30 min preincubation, 90 min reaction at 37° C. It is filed as biochemical. In a few lines:
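PAD4 (10 nM) preincubated 30 min with compound (top final 50 μM), then BAEE substrate added in pH 7.5 HEPES buffer with DTT, 50 μM calcium, TPEN; 90 min at 37° C. After TCA quench, citrulline derivatized with phenyl glyoxal (4 mM final, 30 min, 37° C) and quantified by RapidFire MS against internal standard.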

Sequence of human PAD4 (hPAD4) (Q9UM07 whole entry): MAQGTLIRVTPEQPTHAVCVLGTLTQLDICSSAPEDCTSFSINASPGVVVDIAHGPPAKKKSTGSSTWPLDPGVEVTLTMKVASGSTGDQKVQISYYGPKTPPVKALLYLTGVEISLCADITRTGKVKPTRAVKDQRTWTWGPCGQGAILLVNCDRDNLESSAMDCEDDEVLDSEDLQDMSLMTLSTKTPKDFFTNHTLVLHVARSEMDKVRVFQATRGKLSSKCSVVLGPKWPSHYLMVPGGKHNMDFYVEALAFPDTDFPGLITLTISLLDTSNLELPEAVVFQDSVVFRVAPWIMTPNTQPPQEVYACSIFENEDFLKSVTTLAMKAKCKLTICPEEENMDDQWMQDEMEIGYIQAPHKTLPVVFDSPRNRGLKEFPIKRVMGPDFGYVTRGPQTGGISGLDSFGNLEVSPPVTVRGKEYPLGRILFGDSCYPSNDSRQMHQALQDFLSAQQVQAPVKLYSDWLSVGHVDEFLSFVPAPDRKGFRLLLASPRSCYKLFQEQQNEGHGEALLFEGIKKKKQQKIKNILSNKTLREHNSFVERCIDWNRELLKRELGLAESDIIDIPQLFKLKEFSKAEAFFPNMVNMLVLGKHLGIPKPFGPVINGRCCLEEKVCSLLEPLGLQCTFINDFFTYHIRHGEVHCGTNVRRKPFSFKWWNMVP

With `COc1cc(C(=O)N2CC3CCC2[C@@H]3N)cc2nc(-c3cc4ccccc4n3CC3CC3)n(CC3CN(C(=O)c4cc(C)nc(C)c4)C3)c12` (stereo partly drawn) [Example 418, (7R)-2-{2-[1-(cyclopropylmethyl)-1H-indol-2-yl]-1-{[1-(2,6-dimethylpyridine-4-carbonyl)azetidin-3-yl]methyl}-7-methoxy-1H-1,3-benzodiazole-5-carbonyl}-2-azabicyclo[2.2.1]heptan-7-amine], the IC50 (as a rule, the midpoint of a concentration-inhibition curve) was determined as 14 nM.
`CCC#CC(=O)N1CC(Cn2c(-c3cc4cccnc4n3CC3CC3)nc3cc(C(=O)N4C[C@H]5CC[C@@H]4[C@@H]5N)cc(OC)c32)C1` [Example 108, 1-[3-({5-[(1R,4R,7R)-7-amino-2-azabicyclo[2.2.1]heptane-2-carbonyl]-2-[1-(cyclopropylmethyl)-1H-pyrrolo[2,3-b]pyridin-2-yl]-7-methoxy-1H-1,3-benzodiazol-1-yl}methyl)azetidin-1-yl]pent-2-yn-1-one]: the IC50 was 40 nM.
`COc1cc(C(=O)N2CC3CCC2[C@@H]3N)cc2nc(-c3cc4cccnc4n3CC3CC3)n(CC3CN(C(=O)c4ccccc4Cl)C3)c12` (stereo partly drawn) [Example 428, (7R)-2-(1-{[1-(2-chlorobenzoyl)azetidin-3-yl]methyl}-2-[1-(cyclopropylmethyl)-1H-pyrrolo[2,3-b]pyridin-2-yl]-7-methoxy-1H-1,3-benzodiazole-5-carbonyl)-2-azabicyclo[2.2.1]heptan-7-amine]: the IC50 amounted to 28 nM.
Regarding `COc1cc(C(=O)N2CC3CCC2[C@@H]3N)cc2nc(-c3cc4cccnc4n3CC3CC3)n(Cc3cnn(-c4ncc(Cl)cc4F)c3)c12` (stereo partly drawn) [Example 342, ((7R)-7-amino-2-azabicyclo[2.2.1]heptan-2-yl)(1-((1-(5-chloro-3-fluoropyridin-2-yl)-1H-pyrazol-4-yl)methyl)-2-(1-(cyclopropylmethyl)-1H-pyrrolo[2,3-b]pyridin-2-yl)-7-methoxy-1H-benzo[d]imidazol-5-yl)methanone], the IC50 amounted to 26 nM.
Under `COc1cc(C(=O)N2C[C@H]3CC[C@@H]2[C@@H]3N)cc2nc(-c3cc4cccnc4n3CC3CC3)n(C3CCN(C(=O)c4ccnc(C#N)c4)CC3)c12` [Example 240, 4-(4-{5-[(1R,4R,7R)-7-amino-2-azabicyclo[2.2.1]heptane-2-carbonyl]-2-[1-(cyclopropylmethyl)-1H-pyrrolo[2,3-b]pyridin-2-yl]-7-methoxy-1H-1,3-benzodiazol-1-yl}piperidine-1-carbonyl)pyridine-2-carbonitrile] stands 1440 nM; under `COc1cc(C(=O)N2C[C@H]3CC[C@@H]2[C@@H]3N)cc2nc(-c3cc4ccccc4n3CC3CC3)n(CC3CCC(=O)N3)c12` (stereo partly drawn) [Example 275, 5-({5-[(1R,4R,7R)-7-amino-2-azabicyclo[2.2.1]heptane-2-carbonyl]-2-[1-(cyclopropylmethyl)-1H-indol-2-yl]-7-methoxy-1H-1,3-benzodiazol-1-yl}methyl)pyrrolidin-2-one], 298 nM; under `COc1cc(C(=O)N2C[C@H]3CC[C@@H]2[C@@H]3N)cc2nc(-c3cc4cccnc4n3CC3CC3)n(C3CN(S(=O)(=O)CC4CC4)C3)c12` [Example 331, (1R,4R,7R)-2-[1-(1-cyclopropylmethanesulfonylazetidin-3-yl)-2-[1-(cyclopropylmethyl)-1H-pyrrolo[2,3-b]pyridin-2-yl]-7-methoxy-1H-1,3-benzodiazole-5-carbonyl]-2-azabicyclo[2.2.1]heptan-7-amine], 190 nM.
In the case of `COc1cc(C(=O)N2C[C@H]3CC[C@@H]2[C@@H]3N)cc2nc(-c3cc4ccccc4n3CC3CC3)n(CC3CN(C(=O)c4ccc(F)cc4)C3)c12` [Example 161, (1R,4R,7R)-2-{2-[1-(cyclopropylmethyl)-1H-indol-2-yl]-1-{[1-(4-fluorobenzoyl)azetidin-3-yl]methyl}-7-methoxy-1H-1,3-benzodiazole-5-carbonyl}-2-azabicyclo[2.2.1]heptan-7-amine], the IC50 worked out at 25 nM.
The result for `COc1cc(C(=O)N2CC3CCC2[C@@H]3N)cc2nc(-c3cc4ccccc4n3CC3CC3)n(CC3CN(C(=O)c4cc[n+]([O-])cc4)C3)c12` (stereo partly drawn) [Example 461, 4-[3-({5-[(7R)-7-amino-2-azabicyclo[2.2.1]heptane-2-carobnyl]-2-[1-(cyclopropylmethyl)-1H-indol-2-yl]-7-methoxy-1H-1,3-benzodiazol-1-yl}methyl)azetidine-1-carbonyl]pyridin-1-ium-1-olate] reads 68 nM.
For `COc1cc(C(=O)N2CC3CCC2[C@@H]3N)cc2nc(-c3cc4ccccc4n3CC3CC3)n(CC3CC3)c12` (stereo partly drawn) [Example 476, (7R)-2-[1-(cyclopropylmethyl)-2-[1-(cyclopropylmethyl)-1H-indol-2-yl]-7-methoxy-1H-1,3-benzodiazole-5-carbonyl]-2-azabicyclo[2.2.1]heptan-7-amine], the IC50 came out at 100 nM.
Under `COc1cc(C(=O)N2C[C@H]3CC[C@@H]2[C@@H]3N)cc2nc(-c3cc4ccccc4n3CC3CC3)n(CC3CN(C(=O)c4cccc(F)c4)C3)c12` [Example 169, (1R,4R,7R)-2-{2-[1-(cyclopropylmethyl)-1H-indol-2-yl]-1-{[1-(3-fluorobenzoyl)azetidin-3-yl]methyl}-7-methoxy-1H-1,3-benzodiazole-5-carbonyl}-2-azabicyclo[2.2.1]heptan-7-amine] stands 33 nM; under `N#Cc1ccc(C(=O)N2CC(Cn3c(-c4cc5cccnc5n4CC4CC4)nc4cc(C(=O)N5CC6CCC5[C@@H]6N)cc(F)c43)C2)cc1` (stereo partly shown) [Example 462], 70 nM.
Turning to `COc1cc(C(=O)N2C[C@H](N)C[C@@H](F)C2)cc2nc(-c3cc4ccccc4n3CC3CC3)n(CCCN3CCCC3=O)c12` [Example 274, 1-(3-{5-[(3R,5R)-3-amino-5-fluoropiperidine-1-carbonyl]-2-[1-(cyclopropylmethyl)-1H-indol-2-yl]-7-methoxy-1H-1,3-benzodiazol-1-yl}propyl)pyrrolidin-2-one], the IC50 was 261 nM.
Regarding `COc1cc(C(=O)N2CC3CCC2[C@@H]3N)cc2nc(-c3cc4ccccc4n3CC3CC3)n(CC3CN(C(=O)Nc4ccccc4)C3)c12` (stereo partly drawn) [Example 472, 3-({5-[(7R)-7-amino-2-azabicyclo[2.2.1]heptane-2-carbonyl]-2-[1-(cyclopropylmethyl)-1H-indol-2-yl]-7-methoxy-1H-1,3-benzodiazol-1-yl}methyl)-N-phenylazetidine-1-carboxamide], the IC50 worked out at 75 nM.
On to `COc1cc(C(=O)N2CC3CCC2[C@@H]3N)cc2nc(-c3cc4ccccc4n3CC3CC3)n(CC3CN(C(=O)c4ccnc(Cl)c4)C3)c12` (stereo partly drawn) [Example 424, (7R)-2-(1-{[1-(2-chloropyridine-4-carbonyl)azetidin-3-yl]methyl}-2-[1-(cyclopropylmethyl)-1H-indol-2-yl]-7-methoxy-1H-1,3-benzodiazole-5-carbonyl)-2-azabicyclo[2.2.1]heptan-7-amine], for which the IC50 was determined as 25 nM.
Under `N[C@@H]1C2CCC1N(C(=O)c1cc(Cl)c3c(c1)nc(-c1cc4ccccc4n1CC1CC1)n3CC1CN(C(=O)c3ccccc3)C1)C2` (stereo partly drawn) [Example 143, (1R,4R,7R)-2-{1-[(1-benozylazetidin-3-yl)methyl]-7-chloro-2-[1-(cyclopropylmethyl)-1H-indol-2-yl]-1H-1,3-benzodiazole-5-carbonyl}-2-azabicyclo[2.2.1]heptan-7-amine] stands 23 nM; under `COc1cc(C(=O)N2CCC[C@@H](N)C2)cc2nc(-c3cc4cccnc4n3CC3CC3)n(C3CNC3)c12` [Example 310, (3R)-1-[1-(azetidin-3-yl)-2-[1-(cyclopropylmethvl)-1H-pyrrolo[2,3-b]pyridin-2-yl]-7-methoxy-1H-1,3-benzodiazole-5-carbonyl]piperidin-3-amine], 1900 nM.
Under `COc1cc(C(=O)N2C[C@H]3CC[C@@H]2[C@@H]3N)cc2nc(-c3cc4ccccc4n3CC3CC3)n(CCCN3CCCC3=O)c12` [Example 254, 1-(3-{5-[(1R,4R,7R)-7-amino-2-azabicyclo[2.2.1]heptane-2-carbonyl]-2-[1-(cyclopropylmethyl)-1H-indol-2-yl]-7-methoxy-1H-1,3-benzodiazol-1-yl}propyl)pyrrolidin-2-one] stands 31 nM.
The result for `COc1cc(C(=O)N2C[C@H]3CC[C@@H]2[C@@H]3N)cc2nc(-c3cc4cc(Cl)ccc4n3C)n(CC3CN(c4cncc(C#N)n4)C3)c12` [Example 59, 6-[3-({5-[(1R,4R,7R)-7-amino-2-azabicyclo[2.2.1]heptane-2-carbonyl]-2-(5-chloro-1-methyl-1H-indol-2-yl)-7-methoxy-1H-1,3-benzodiazol-1-yl}methyl)azetidin-1-yl]pyrazine-2-carbonitrile] reads 171 nM; that for `COc1cc(C(=O)N2C[C@H](N)C[C@@H](F)C2)cc2nc(-c3cc4cccnc4n3CC3CC3)n(Cc3cnn(-c4ncc(F)cc4F)c3)c12` [Example 393, (3R,5R)-1-{2-[1-(cyclopropylmethyl)-1H-pyrrolo[2,3-b]pyridin-2-yl]-1-{[1-(3,5-difluoropyridin-2-yl)-1H-pyrazol-4-yl]methyl}-7-methoxy-1H-1,3-benzodiazole-5-carbonyl}-5-fluoropiperidin-3-amine], 49 nM.
Turning to `COc1cc(C(=O)N2CC3CCC2[C@@H]3N)cc2nc(-c3cc4ccccc4n3CC3CC3)n(CC3CN(C(=O)c4cnc(Cl)s4)C3)c12` (stereo partly drawn) [Example 414, (7R)-2-(1-{[1-(2-chloro-1,3-thiazole-5-carbonyl)azetidin-3-yl]methyl}-2-[1-(cyclopropylmethyl)-1H-indol-2-yl]-7-methoxy-1H-1,3-benzodiazole-5-carbonyl)-2-azabicyclo[2.2.1]heptan-7-amine], the IC50 came out at 35 nM.
As for `COc1ccc2cc(-c3nc4cc(C(=O)N5C[C@H]6CC[C@@H]5[C@@H]6N)cc(OC)c4n3CC3CN(C(=O)c4cnc(C#N)nc4)C3)n(CC3CC3)c2n1` [Example 177, 5-[3-({5-[(1R,4R,7R)-7-amino-2-azabicyclo[2.2.1]heptane-2-carbonyl]-2-[1-(cyclopropylmethyl)-6-methoxy-1H-pyrrolo[2,3-b]pyridin-2-yl]-7-methoxy-1H-1,3-benzodiazol-1-yl}methyl)azetidine-1-carbonyl]pyrimidine-2-carbonitrile], the IC50 came to 54 nM.
